This note sets out measurements from ChEMBL document CHEMBL1130110 (J Med Chem, 1997).

Assay [1] deals with T1, Glucagon receptor (Rattus norvegicus, UniProt P30082). Briefly: Effective concentration was determined in cAMP accumulation assay using isolated hepatocytes in the presence rolipram. The assay is classed as functional, cell-based. The conditions noted are these: hepatocyte. On the technique in general: Cyclic AMP is a second messenger, typically raised through Gs and lowered through Gi signalling.
T1 sequence (P30082 whole entry): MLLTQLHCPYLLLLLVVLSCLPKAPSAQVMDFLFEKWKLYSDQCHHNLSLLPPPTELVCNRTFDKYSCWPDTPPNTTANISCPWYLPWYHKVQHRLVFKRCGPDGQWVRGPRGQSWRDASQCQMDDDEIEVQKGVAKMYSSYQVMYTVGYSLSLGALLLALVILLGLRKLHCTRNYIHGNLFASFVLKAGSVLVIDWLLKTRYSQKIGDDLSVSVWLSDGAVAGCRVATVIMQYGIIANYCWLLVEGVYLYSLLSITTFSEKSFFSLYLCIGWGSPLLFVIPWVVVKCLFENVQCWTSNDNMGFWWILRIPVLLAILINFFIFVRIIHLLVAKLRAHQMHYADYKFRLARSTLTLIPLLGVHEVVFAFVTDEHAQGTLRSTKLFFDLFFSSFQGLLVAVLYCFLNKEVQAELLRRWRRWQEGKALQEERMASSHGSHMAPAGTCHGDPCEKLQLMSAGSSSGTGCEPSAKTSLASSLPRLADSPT

Assay [2] addresses T1, Glucagon receptor. Briefly: pA2 value against Glucagon Receptor. Particulars: read-out: pA2 (converted); call rule not given here.
The target of assay [3] is T1, Glucagon receptor. Briefly: Binding affinity towards Glucagon receptor in rat liver plasma membranes by displacement of 125 I-labelled glucagon. The assay is classed as cell membranes.

For `CC(C)C[C@H](NC(=O)[C@H](Cc1ccc(O)cc1)NC(=O)[C@H](CCCCN)NC(=O)[C@H](CO)NC(=O)[C@H](Cc1ccc(O)cc1)NC(=O)[C@H](CC(=O)O)NC(=O)[C@H](CO)NC(=O)[C@@H](NC(=O)[C@@H](NC(=O)CNC(=O)[C@H](CCC(N)=O)NC(=O)[C@H](CO)NC(=O)[C@@H](N)Cc1c[nH]cn1)[C@@H](C)O)[C@@H](C)O)C(=O)N[C@@H](CC(=O)O)C(=O)N[C@@H](CO)C(=O)N[C@@H](CCCN=C(N)N)C(=O)N[C@@H](CCCN=C(N)N)C(=O)N[C@@H](C)C(=O)N[C@@H](CCC(N)=O)C(=O)N[C@@H](CC(=O)O)C(=O)N[C@@H](Cc1ccccc1)C(=O)N[C@H](C(=O)N[C@@H](CCC(N)=O)C(=O)N[C@@H](Cc1c[nH]c2ccccc12)C(=O)N[C@@H](CC(C)C)C(=O)N[C@@H](CCS)C(=O)N[C@@H](CC(N)=O)C(=O)N[C@H](C=O)[C@@H](C)O)C(C)C`, the EC50 entry in assay [1] was “Not Active”.

As for `CSCC[C@H](NC(=O)[C@H](CC(C)C)NC(=O)[C@H](Cc1c[nH]c2ccccc12)NC(=O)[C@H](CCC(N)=O)NC(=O)[C@@H](NC(=O)[C@H](Cc1ccccc1)NC(=O)[C@H](CC(=O)O)NC(=O)[C@H](CCC(N)=O)NC(=O)[C@H](C)NC(=O)[C@H](CCCN=C(N)N)NC(=O)[C@H](CCCN=C(N)N)NC(=O)[C@H](CO)NC(=O)[C@H](CC(=O)O)NC(=O)[C@H](CC(C)C)NC(=O)[C@H](Cc1ccc(O)cc1)NC(=O)[C@H](CCCCN)NC(=O)[C@H](CO)NC(=O)[C@H](Cc1ccc(O)cc1)NC(=O)[C@H](CC(=O)O)NC(=O)[C@H](CO)NC(=O)[C@@H](NC(=O)[C@@H](NC(=O)CNC(=O)[C@H](CCC(N)=O)NC(=O)[C@@H](N)CO)[C@@H](C)O)[C@@H](C)O)C(C)C)C(=O)N[C@@H](CC(N)=O)C(=O)N[C@H](C(=O)O)[C@@H](C)O`, in assay [1], the EC50 entry is given as “Not Active”. As to `CSCC[C@H](NC(=O)[C@H](CC(C)C)NC(=O)[C@H](Cc1c[nH]c2ccccc12)NC(=O)[C@H](CCC(N)=O)NC(=O)[C@@H](NC(=O)[C@H](Cc1ccccc1)NC(=O)[C@H](CC(=O)O)NC(=O)[C@H](CCC(N)=O)NC(=O)[C@H](C)NC(=O)[C@H](CCCN=C(N)N)NC(=O)[C@H](CCCN=C(N)N)NC(=O)[C@H](CO)NC(=O)[C@H](CC(=O)O)NC(=O)[C@H](CC(C)C)NC(=O)[C@H](Cc1ccc(O)cc1)NC(=O)[C@H](CCCCN)NC(=O)[C@H](CO)NC(=O)[C@H](Cc1ccc(O)cc1)NC(=O)[C@H](CCC(=O)O)NC(=O)[C@H](CO)NC(=O)[C@@H](NC(=O)[C@H](Cc1c[nH]c2ccccc12)NC(=O)[C@@H](NC(=O)CNC(=O)[C@H](CCC(N)=O)NC(=O)[C@@H](N)CO)[C@@H](C)O)[C@@H](C)O)C(C)C)C(=O)N[C@@H](CC(N)=O)C(=O)N[C@H](C(N)=O)[C@@H](C)O`, the Kb in assay [2] is 0.562 µM. In assay [3], the IC50 worked out at 0.019 µM. Besides, the EC50 entry in assay [1] is “Not Active”.

As to `CSCC[C@H](NC(=O)[C@H](CC(C)C)NC(=O)[C@H](Cc1c[nH]c2ccccc12)NC(=O)[C@H](CCC(N)=O)NC(=O)[C@@H](NC(=O)[C@H](Cc1ccccc1)NC(=O)[C@H](CC(=O)O)NC(=O)[C@H](CCC(N)=O)NC(=O)[C@H](C)NC(=O)[C@H](CCCN=C(N)N)NC(=O)[C@H](CCCN=C(N)N)NC(=O)[C@H](CO)NC(=O)[C@H](CC(=O)O)NC(=O)[C@H](CC(C)C)NC(=O)[C@H](Cc1ccc(O)cc1)NC(=O)[C@H](CCCCN)NC(=O)[C@H](CO)NC(=O)[C@H](Cc1ccc(O)cc1)NC(=O)[C@H](CCC(=O)O)NC(=O)[C@H](CO)NC(=O)[C@@H](NC(=O)[C@@H](NC(=O)CNC(=O)[C@H](CCC(N)=O)NC(=O)[C@@H](N)CO)[C@@H](C)O)[C@@H](C)O)C(C)C)C(=O)N[C@@H](CC(N)=O)C(=O)N[C@H](C(=O)O)[C@@H](C)O` (stereo in doubt; 13), the EC50 entry in assay [1] is given as “Not Active”.

As to `CSCC[C@H](NC(=O)[C@H](CC(C)C)NC(=O)[C@H](Cc1c[nH]c2ccccc12)NC(=O)[C@H](CCC(N)=O)NC(=O)[C@@H](NC(=O)[C@H](Cc1ccccc1)NC(=O)[C@H](CC(=O)O)NC(=O)[C@H](CCC(N)=O)NC(=O)[C@H](C)NC(=O)[C@H](CCCN=C(N)N)NC(=O)[C@H](CCCN=C(N)N)NC(=O)[C@H](CO)NC(=O)[C@H](CC(=O)O)NC(=O)[C@H](CC(C)C)NC(=O)[C@H](Cc1ccc(O)cc1)NC(=O)[C@H](CCCCN)NC(=O)[C@H](CO)NC(=O)[C@H](Cc1ccc(O)cc1)NC(=O)[C@H](CCC(=O)O)NC(=O)[C@H](CO)NC(=O)[C@@H](NC(=O)[C@@H](NC(=O)CNC(=O)[C@H](CCC(N)=O)NC(=O)[C@@H](N)CO)[C@@H](C)O)[C@@H](C)O)C(C)C)C(=O)N[C@@H](CC(N)=O)C(=O)N[C@H](C(N)=O)[C@@H](C)O`, the EC50 entry in assay [1] is “Not Active”.

As to `CSCC[C@H](NC(=O)[C@H](CC(C)C)NC(=O)[C@H](Cc1c[nH]c2ccccc12)NC(=O)[C@H](CCC(N)=O)NC(=O)[C@@H](NC(=O)[C@H](Cc1ccccc1)NC(=O)[C@H](CC(=O)O)NC(=O)[C@H](CCC(N)=O)NC(=O)[C@H](C)NC(=O)[C@H](CCCN=C(N)N)NC(=O)[C@H](CCCN=C(N)N)NC(=O)[C@H](CO)NC(=O)[C@H](CC(=O)O)NC(=O)[C@H](CC(C)C)NC(=O)[C@H](Cc1ccc(O)cc1)NC(=O)[C@H](CCCCN)NC(=O)[C@H](CO)NC(=O)[C@H](Cc1ccc(O)cc1)NC(=O)[C@H](CCC(=O)O)NC(=O)[C@H](CO)NC(=O)[C@@H](NC(=O)[C@H](C)NC(=O)[C@@H](NC(=O)CNC(=O)[C@H](CCC(N)=O)NC(=O)[C@@H](N)CO)[C@@H](C)O)[C@@H](C)O)C(C)C)C(=O)N[C@@H](CC(N)=O)C(=O)N[C@H](C(N)=O)[C@@H](C)O`, the EC50 entry in assay [1] is “Not Active”. Still for that read-out and setting: with `CSCC[C@H](NC(=O)[C@H](CC(C)C)NC(=O)[C@H](Cc1c[nH]c2ccccc12)NC(=O)[C@H](CCC(N)=O)NC(=O)[C@@H](NC(=O)[C@H](Cc1ccccc1)NC(=O)[C@H](CC(=O)O)NC(=O)[C@H](CCC(N)=O)NC(=O)[C@H](C)NC(=O)[C@H](CCCN=C(N)N)NC(=O)[C@H](CCCN=C(N)N)NC(=O)[C@H](CO)NC(=O)[C@H](CC(=O)O)NC(=O)[C@H](CC(C)C)NC(=O)[C@H](Cc1ccc(O)cc1)NC(=O)[C@H](CCCCN)NC(=O)[C@H](CO)NC(=O)[C@H](Cc1ccc(O)cc1)NC(=O)[C@H](CCC(=O)O)NC(=O)[C@H](CO)NC(=O)[C@@H](NC(=O)[C@H](CC(=O)O)NC(=O)[C@@H](NC(=O)CNC(=O)[C@H](CCC(N)=O)NC(=O)[C@@H](N)CO)[C@@H](C)O)[C@@H](C)O)C(C)C)C(=O)N[C@@H](CC(N)=O)C(=O)N[C@H](C(N)=O)[C@@H](C)O` the entry was “Not Active”. In the case of `CSCC[C@H](NC(=O)[C@H](CC(C)C)NC(=O)[C@H](Cc1c[nH]c2ccccc12)NC(=O)[C@H](CCC(N)=O)NC(=O)[C@@H](NC(=O)[C@H](Cc1ccccc1)NC(=O)[C@H](CC(=O)O)NC(=O)[C@H](CCC(N)=O)NC(=O)[C@H](C)NC(=O)[C@H](CCCN=C(N)N)NC(=O)[C@H](CCCN=C(N)N)NC(=O)[C@H](CO)NC(=O)[C@H](CC(=O)O)NC(=O)[C@H](CC(C)C)NC(=O)[C@H](Cc1ccc(O)cc1)NC(=O)[C@H](CCCCN)NC(=O)[C@H](CO)NC(=O)[C@H](Cc1ccc(O)cc1)NC(=O)[C@H](CCC(=O)O)NC(=O)[C@H](CO)NC(=O)[C@@H](NC(=O)[C@H](Cc1ccc(O)cc1)NC(=O)[C@@H](NC(=O)CNC(=O)[C@H](CCC(N)=O)NC(=O)[C@@H](N)CO)[C@@H](C)O)[C@@H](C)O)C(C)C)C(=O)N[C@@H](CC(N)=O)C(=O)N[C@H](C(N)=O)[C@@H](C)O`, the Kb in assay [2] was 0.631 µM. In assay [3], this compound displayed an IC50 of 0.04 µM. Also, in assay [1], the EC50 result is listed as “Not Active”. On to `CSCC[C@H](NC(=O)[C@H](CC(C)C)NC(=O)[C@H](Cc1c[nH]c2ccccc12)NC(=O)[C@H](CCC(N)=O)NC(=O)[C@@H](NC(=O)[C@H](Cc1ccccc1)NC(=O)[C@H](CC(=O)O)NC(=O)[C@H](CCC(N)=O)NC(=O)[C@H](C)NC(=O)[C@H](CCCN=C(N)N)NC(=O)[C@H](CCCN=C(N)N)NC(=O)[C@H](CO)NC(=O)[C@H](CC(=O)O)NC(=O)[C@H](CC(C)C)NC(=O)[C@H](Cc1ccc(O)cc1)NC(=O)[C@H](CCCCN)NC(=O)[C@H](CO)NC(=O)[C@H](Cc1ccc(O)cc1)NC(=O)[C@H](CC(=O)O)NC(=O)[C@H](CO)NC(=O)[C@@H](NC(=O)[C@@H](NC(=O)CNC(=O)[C@H](CCC(N)=O)NC(=O)[C@H](CO)NC(=O)[C@@H](N)Cc1c[nH]cn1)[C@@H](C)O)[C@@H](C)O)C(C)C)C(=O)N[C@@H](CC(N)=O)C(=O)N[C@H](C(N)=O)[C@@H](C)O`, for which the Kb in assay [2] is 0.501 µM. In assay [3], this compound had a concentration for half-maximal inhibition (IC50) of 0.512 µM. For the same compound, in assay [1], the EC50 result is on record as “Not Active”.

With `CSCC[C@H](NC(=O)[C@H](CC(C)C)NC(=O)[C@H](Cc1c[nH]c2ccccc12)NC(=O)[C@H](CCC(N)=O)NC(=O)[C@@H](NC(=O)[C@H](Cc1ccccc1)NC(=O)[C@H](CC(=O)O)NC(=O)[C@H](CCC(N)=O)NC(=O)[C@H](C)NC(=O)[C@H](CCCN=C(N)N)NC(=O)[C@H](CCCN=C(N)N)NC(=O)[C@H](CO)NC(=O)[C@H](CC(=O)O)NC(=O)[C@H](CC(C)C)NC(=O)[C@H](Cc1ccc(O)cc1)NC(=O)[C@H](CCCCN)NC(=O)[C@H](CO)NC(=O)[C@H](Cc1ccc(O)cc1)NC(=O)[C@H](CC(=O)O)NC(=O)[C@H](CO)NC(=O)[C@@H](NC(=O)[C@@H](NC(=O)CNC(=O)[C@H](CCC(N)=O)NC(=O)[C@@H](N)CO)[C@@H](C)O)[C@@H](C)O)C(C)C)C(=O)N[C@@H](CC(N)=O)C(=O)N[C@H](C(N)=O)[C@@H](C)O`, in assay [2], the Kb is 0.562 µM. For the same compound, the IC50 in assay [3] was determined as 0.128 µM. Moreover, the EC50 entry in assay [1] is listed as “Not Active”. In the case of `CSCC[C@H](NC(=O)[C@H](CC(C)C)NC(=O)[C@H](Cc1c[nH]c2ccccc12)NC(=O)[C@H](CCC(N)=O)NC(=O)[C@@H](NC(=O)[C@H](Cc1ccccc1)NC(=O)[C@H](CC(=O)O)NC(=O)[C@H](CCC(N)=O)NC(=O)[C@H](C)NC(=O)[C@H](CCCN=C(N)N)NC(=O)[C@H](CCCN=C(N)N)NC(=O)[C@H](CO)NC(=O)[C@H](CC(=O)O)NC(=O)[C@H](CC(C)C)NC(=O)[C@H](Cc1ccc(O)cc1)NC(=O)[C@H](CCCCN)NC(=O)[C@H](CO)NC(=O)[C@H](Cc1ccc(O)cc1)NC(=O)[C@H](CCC(=O)O)NC(=O)[C@H](CO)NC(=O)[C@@H](NC(=O)[C@H](Cc1ccccc1)NC(=O)[C@@H](NC(=O)[C@H](CCC(N)=O)NC(=O)[C@@H](N)CO)[C@@H](C)O)[C@@H](C)O)C(C)C)C(=O)N[C@@H](CC(N)=O)C(=O)N[C@H](C(N)=O)[C@@H](C)O`, the Kb in assay [2] is 0.891 µM. The IC50 in assay [3] came to 0.052 µM.

In general, IC50 refers to the concentration that gives 50% inhibition. A higher IC50 goes with a need for much substance.
